According to paper PMC3169616, “Unique Residues Involved in Activation of the Multitasking Protease/Chaperone HtrA from Chlamydia trachomatis” (PLoS ONE, 2011):

Legend:
Assay type in all cases: biochemical
[1] = target: T1, CtHtrA (Chlamydia trachomatis serovar D, UniProt P18584); assay: Activation of CtHtrA cleavage of pNA peptides by added activator peptide; conditions: data not shown
T1 construct: His-tag; made in house; host or cells: E. coli BL21 (DE3), plasmid pETHtrA
T1 sequence (P18584 17-497): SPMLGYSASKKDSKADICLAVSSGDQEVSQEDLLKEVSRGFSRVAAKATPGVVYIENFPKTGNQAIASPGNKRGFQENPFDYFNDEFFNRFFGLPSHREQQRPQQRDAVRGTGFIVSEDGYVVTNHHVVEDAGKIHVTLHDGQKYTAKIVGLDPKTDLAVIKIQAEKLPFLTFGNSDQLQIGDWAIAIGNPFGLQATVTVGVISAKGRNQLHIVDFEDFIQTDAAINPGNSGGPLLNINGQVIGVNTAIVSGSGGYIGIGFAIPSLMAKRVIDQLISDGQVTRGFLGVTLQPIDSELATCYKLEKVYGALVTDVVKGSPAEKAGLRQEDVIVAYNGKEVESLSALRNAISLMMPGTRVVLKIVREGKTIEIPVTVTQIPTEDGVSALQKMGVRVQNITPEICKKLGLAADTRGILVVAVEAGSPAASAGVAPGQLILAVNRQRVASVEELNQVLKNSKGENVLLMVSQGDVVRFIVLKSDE
Protocol: (§1) To determine if the addition of a second peptide to the protease assays could activate or increase CtHtrA proteolysis, two activator peptides were tested in the CtHtrA cleavage of the model ß-casein peptide substrate Bcas1. The first was based on the ß-casein C-terminal sequence (Act1: NH2-VLGPVRGPFPIIV-OH) and the second on insulin b chain C-terminal sequence (Act2: NH2-CGELGFFYTP-OH).
One explanation for the observation of a lack of activation for some substrates could be that these substrates act as both activators and substrates by binding to both the active and allosteric sites of CtHtrA. In particular, the pNA peptides were not activated, which could imply that the pNA moiety itself may bind at the activation site. […]
(§2) The purified recombinant protein was examined by Coomassie stained polyacrylamide gels and activity was checked using ß-casein cleavage assays prior to use in peptide assays. […] Protease assays using pNA labelled peptides were conducted using the xMARK Microplate spectrophotometer (Bio-Rad) at 405 nm, incubated at 37°C, with a reading taken every 10 s for 30 min. The maximum slope over a minimum of 8 readings was used for the data analysis. […] The assays were excited at 340 nm and emission was detected at 405 nm with a gain of 1000, the assays were monitored every 20 s or at the minimum cycle time for up to 40 min. […]

[2] = target: T1, CtHtrA; assay: Activation of CtHtrA cleavage of Bcas1 substrate by added activator; conditions: substrate Bcas1 (MCA-ENLHLPLPIIF-DNP), fluorimetric, 37°C
Protocol: as §1
Finally, in order to determine if the 24-mer (highest amount with MOMP protein, or Act1), or 12-mer, or both, corresponds to enhanced protease activity, the incubations of CtHtrA and these potential in vivo activators were used for protease assays with the Bcas1 substrate (Fig. 6). […] The presence of the majority of CtHtrA as higher order oligomers correlated with an increased rate of proteolysis for CtHtrA, particularly when these oligomers were predominately 24-mers.
The purified recombinant protein was examined by Coomassie stained polyacrylamide gels and activity was checked using ß-casein cleavage assays prior to use in peptide assays. Briefly, this involved incubating 2 µg of the protease with 10 µg of ß-casein in 50 mM Tris pH 7.0, 20 mM MgCl2 for 2 h prior to examining the assays by SDS PAGE (ß-casein and protease only controls were always conducted). Protease assays using peptides were conducted using custom synthesised peptides (Mimotopes). […] Protease assays using pNA labelled peptides were conducted using the xMARK Microplate spectrophotometer (Bio-Rad) at 405 nm, incubated at 37°C, with a reading taken every 10 s for 30 min. The maximum slope over a minimum of 8 readings was used for the data analysis. […] The assays were excited at 340 nm and emission was detected at 405 nm with a gain of 1000, the assays were monitored every 20 s or at the minimum cycle time for up to 40 min. […] The assay results shown for the fluorescent compounds have been normalised for the amount of fluorescent emission detected using a standard curve of known concentrations of the MCA fluorophore under the identical assay conditions. […]

[3] = target: T1, CtHtrA; assay: Protease assay with MCA/DNP-labelled fluorimetric peptides (REPLi library); conditions: peptide based on the optimal activity for human HtrA2; data not shown
Excerpt: To further refine the CtHtrA substrate specificity, the REPLi peptide library (Mimotopes, Melbourne) was screened. The REPLi library peptides consist of a randomised tripeptide sequence flanked on either side by two GGG tripeptide sequences. The N-terminus of each peptide was labelled with a 7-methoxycoumarin (MCA) fluorophore, and the C-terminus was labelled with a 2,4-dinitrophenyl (DNP) fluorescent quencher. The peptides were pooled according to structural similarity and selected wells with high activity were then rescreened as individual peptides to identify the peptides cut by CtHtrA (Fig. S2, all wells where CtHtrA activity was observed). […] Cleavage at the glycine or terminal fluorophore or quenchers was never detected for any peptide. […]
as §2

Row | Substance | effect of activator peptide on CtHtrA cleavage of pNA peptides [1] | effect of activator on rate of CtHtrA proteolysis of Bcas1 [2] | viability as substrate for CtHtrA [3]
1 | QNIPF | did activate the cleavage of some of the pNA peptides tested | did not activate CtHtrA cleavage of Bcas1 | 
2 | MCA-IRRVSYSF-DNP |  |  | not a viable substrate
